Test results reported in US20240299380A1, “APPLICATION OF COMPOUND IN PREPARATION OF DRUG FOR TREATING MYELOFIBROSIS AND RELATED SYMPTOMS/SIGNS THEREOF, AND USE OF COMPOUND” (Betta Pharmaceuticals Co., Ltd, priority 2021, published 2024).

How the values were obtained:
[1] = test system: HEL cells with JAK2V617F activation mutation; assay: CTG cell proliferation assay, HEL cells; type: cell-based, human
Protocol: (§1) The effects of compound 1 on proliferation of human myeloproliferative tumor cells HEL and SET-2 cells with JAK2V617F activation mutation were tested using CTG assay in this example to evaluate half inhibitory rate (IC50) of compound 1 on HEL and SET-2 cell proliferation.
(§2) • a) HEL cells were cultured in RPMI 1640 medium containing 1% PS and 10% FBS. […] The cells were incubated in a humidified incubator with 5% carbon dioxide (CO2) at 37° C.
(§3) • a) Cells were harvested upon reaching a certain density. • b) Cells were resuspended in corresponding medium with a certain density. • c) 30 μL of cell suspension was added into each well of a 384-well plate. For HEL, the density was 1800 cells/well, and for SET-2, 2000 cells/well. • d) Cells were incubated overnight in a humidified incubator with 5% CO2 at 37° C.
(§4) The compounds were diluted with DMSO 6.67 fold from 20 mM to 3 mM, then 3-fold serial dilutions were conducted to make 10 concentrations for each compound. […]
(§5) • a) 30 μL CTG reagent (CelltiterGlo kit) was added to each well, and the plate was subjected to orbital shaking for 2 minutes, then incubated at room temperature in the dark for 30 minutes. • b) Luminescence values were obtained using Envision.
(§6) IC50 (the half maximal inhibitory concentration) was calculated with GraphPad Prism 8 software and following nonlinear fitting formula: […]

[2] = test system: SET-2 cells with JAK2V617F activation mutation; assay: CTG cell proliferation assay, SET-2 cells; type: cell-based, human
Protocol: as §1, §2, §3, §4, §5, §6

[3] = test system: NF-κB transcriptional activity; assay: NF-κB reporter gene assay in HEK293 cells; type: cell-based
Protocol: In present example, reporter gene assay was used to determine the inhibitory effect of compound 1 on NF-κB transcriptional activity in HEK293 cells, to evaluate the effect of the compound on NF-κB transcriptional activity.
• a) All compounds were 3-fold serial diluted from 10 mM for 10 doses in DMSO. • b) The positive compound CDDO-Me was 3-fold serial diluted from 10 mM for 10 doses in DMSO. • c) 1000×positive control ([…]) and 1000×negative control (100% DMSO) were prepared. • d) Compounds plate was sealed and shaked for 5 minutes.
• a) All cells were cultured following ATCC recommendations. […] Digestion was terminated with complete culture medium, and the cells were collected and counted. • d) A total of 6*10^6 HEK293T cells were seeded into a 100 mm cell culture dish. • e) The cells were then incubated overnight in a 5% CO2 incubator. […]
• a) The Britelite plus reagent were allowed to reach room temperature. • b) The 384-well assay plates (prepared at Step 3) were allowed to reach room temperature. • c) 25 μL Britelite plus reagent was added to each well of 384-well assay plate. • d) Luminescence values were recorded with Envision.
[formula] • RLU: relative luminescence units • RLUPositive: The average luminescence value of the blank controls. • RLUvehicle: The average luminescence value of the negative controls. • 5.2 IC50 calculating and compound dose-response curves fitting: […]

[4] = test system: IL-6 secretion in THP-1 cells; assay: IL-6 ELISA in THP-1 cell supernatants following LPS stimulation; type: cell-based, Human
Protocol: The Human IL-6 Valukine ELISA kit (purchased from R&D) was used to measure the IL-6 content in the cell supernatants by ELISA method in this example. The experimental procedures shown below were conducted to determine the effect of compound 1 on IL-6 secretion in THP-1 cell supernatants following LPS stimulation.
THP-1 cells were cultured in RPMI 1640 medium containing 1% PS and 10% FBS and 2-Mercaptoethanol (IX). The cells were incubated in a humidified incubator with 5% carbon dioxide (CO2) at 37° C. […]
• a) 50 μL medium was added to each well. • b) 100 μL CTG reagent (CelltiterGlo kit) was added to each well, and the plate was placed on a orbital shaker for 2 minutes, then placed at room temperature in dark conditions for 30 minutes, and then transferred to CTG plate. • c) The luminescence values were recorded with Envision.
IC50 (The half maximal inhibitory concentration) was calculated using GraphPad Prism 8 software with the following nonlinear fitting formula: […]
[formula] • b) IL-6 detection: X: Log value of Compound concentration, Y: IL-6 concentration (pg/mL) • IL-6 concentration was calculated based on the linear equation of standard dilution concentration and wavelength detection. […]

[5] = Homo sapiens, 72 h, CTG, read-out: IC50 for cell proliferation inhibition

Cc1nc2ncc(-c3cn(C)c(=O)c4[nH]ccc34)nc2n1Cc1ccc(C(F)(F)F)cc1 [Compound 1, 6-methyl-4-(2-methyl-1-(4-(trifluoromethyl)benzyl)-1H-imidazo[4,5-b]pyrazin-6-yl)-1H-py rrolo[2,3-c]pyridin-7(6H)-one]
inhibitory effect on proliferation of HEL cells (in words) [1]: good inhibitory effect
IC50 [1, 5]: 154 nM
inhibitory effect on proliferation of SET-2 cells (in words) [2]: good inhibitory effect
IC50 [2, 5]: 104 nM
inhibition of the transcriptional activity of NF-κB (in words) ([3]; HEK293 cells stably transfected with the NF-κB reporter gene): significantly inhibited
IC50 ([3]; Homo sapiens, HEK293 cells with NF-κB reporter gene, 8 ng/ml TNFα, 16-20 h, read-out: IC50 for the inhibition of NF-κB transcriptional activity): 148 nM
IC50 ([4]; Homo sapiens, THP-1 cells, LPS 4 μg/mL, read-out: IC50 for inhibition of IL-6 secretion in THP-1 cells): 22.4 nM
inhibition of IL-6 secretion (in words) ([4]; THP1 monocytes, LPS): significantly inhibited
